According to patent publication US7560267B2, “Apparatus and methods for on-chip monitoring of cellular reactions” (City University of Hong Kong, priority 2002, dated 2009):

Experiments:
HL60 cells [1] = experiment: On-chip ATP-dependent calcium uptake in docked HL60 cells (Fluo-3 fluorescence, concentration gradient); assay type: cell-based
Experimental: A practical embodiment of the present invention will now be described with reference to a typical experiment of the type for which the present invention is particularly suitable. In particular, in the following example an embodiment of the invention will be used to calculate the threshold ATP concentration that induces calcium uptake in HL60 mammalian cells. In this example HL60 cells (leukemia, promyelocytic) were suspended in 0.5 ml fresh RPMI 1640 with Pluronic F-127 (1% w/v final) and Fluo3-AM (2 micro molar final). After 30 minutes of incubation at room temperature, cells were re-suspended in (Hank's balanced salt solution) HBSS before loading into the apparatus. The example was carried out with an apparatus as shown in FIG. 1 and manufactured as described above. Before use, the etched quartz plate and a PDMS cover were touch-bonded and irradiated with UV light for 10 minutes in a bio-safety cabinet. After filling up micro-channels with buffer by capillary action, the apparatus was securely mounted on the stage of confocal microscope. Introduction of various fluids was implemented by using a 2-20 […] auto-pipette (HLT pipette-mate). An Axiovert 100M confocal microscope (Carl Zeiss) was used for data acquisition. Profiling data analysis mode was employed to present PMT response along a specific line in the apparatus. All fluorophores were excited by Argon (488 nm) laser. An emission filter 505-530 nm was used for Fluo-3 and AO while a 560 nm (long-pass) filter was used for ethidium bromide (EB) study. Scanning parameters were kept identical throughout all experiments for a particular fluorophore. Mammalian HL60 cells uptake extracellular calcium ions when the buffer ATP concentration is beyond a particular level. The minimum ATP concentration required to induce calcium uptake is referred as the threshold concentration. In this example of the use of an embodiment of the invention, cell docking and analyte concentration gradient were combined to determine the threshold concentration of ATP-dependent calcium uptake. The fluorescence images of the microchip under different conditions are shown in FIG. 6, with about 80 docked cells along the dam. In the “control” image and intensity measurement, the background cellular signal was due to the presence of intracellular calcium in HL60 cells. When an ATP solution (2 μM) was loaded into the CW/A vial, the cellular signal intensity was increased by 3-fold in the first zone (A to B) as compared to other zones (FIGS. 6 & 7, 2 μM images). The ATP threshold concentration can therefore be visualized as being between points B and C. After washing with buffer, the same batch of docked HL60 cells were exposed to higher ATP concentrations. Using the same LLP, the threshold concentration range shifted downstream with increasing analyte concentrations. As shown in FIGS. 6 & 7, with 5 μM ATP loaded into the apparatus, the cellular fluorescence intensity-in the first (A to B) and second (C to D) zones were enhanced. The threshold concentration range was shifted to the zone between points D & E. Repeating this process with 10 μM ATP, the Ca-related fluorescence in all cells in all zones were excited, (the signal intensity at the first zone was relatively weak due to desensitization from multiple ATP stimulations.). […] Using this equation, a relationship between liquid levels H and flow quantity Q can be derived: H=RQ+KQ2 (2) where parameters R and K depends on the geometrical profile of the channels. […]

HL60 cells [2] = experiment: ATP threshold concentration by conventional fluorescence measurements (13 serial dilution experiments); assay type: cell-based; settings: 13 individual serial dilution experiments, FIG. 8
Experimental: FIG. 8 is a plot of ATP threshold concentration obtained by conventional techniques for comparison purposes, In this example, first of all a viability test was carried out to confirm that after docking a sufficient number of living cells were safely docked, and then a concentration gradient was made visible by a fluorophore. When the presence of a viable number of docked cells, and the creation of a concentration gradient were confirmed, the threshold concentration for calcium uptake was calculated using the apparatus of the invention, and then the results compared with an experiment using conventional serial dilution techniques. The ATP concentration gradient along the dam structure was estimated according to the above computational model. Combining the results obtained in 2 μM and 5 μM ATP stimulations, the threshold concentration was estimated within a range of 0.16±0.02 μM. The threshold concentration was also determined using conventional fluorescence measurements. […] The threshold concentration range was determined to be 0.15-0.19 μM, which is in good agreement with the result obtained using the embodiment of the present invention.

SMILES: Nc1ncnc2c1ncn2[C@@H]1O[C@H](COP(=O)(O)OP(=O)(O)OP(=O)(O)O)[C@@H](O)[C@H]1O [ATP]
- increase of cellular signal intensity (fold) (HL60 cells [1]; 2 μM ATP loaded into CW/A vial, first zone (A to B) compared to other zones): 3 fold
- cellular fluorescence intensity (HL60 cells [1]; 5 μM ATP loaded, first (A to B) and second (C to D) zones): enhanced
- Ca-related fluorescence (HL60 cells [1]; 10 μM ATP loaded, all cells in all zones): excited
- threshold concentration of ATP-dependent calcium uptake (HL60 cells [1]; on-chip, HL60 cells, estimated from computational gradient model combining 2 μM and 5 μM ATP stimulations): 0.16 ± 0.02 µM
- threshold ATP concentration (HL60 cells [1]; on-chip, HL60 cells, indicated by experimental results before gradient estimation): below 2 μM
- threshold concentration range (HL60 cells [2]): 0.15 to 0.19 µM
